Bridge positions count the residues as written; N and C are the ends. Square brackets hold non-standard residues; d marks the D form. Peptide text beside a SMILES is read from it. * marks the point of attachment. ξ: configuration not given here. Phe(3,4-Cl2) = N[C@@H](Cc1ccc(Cl)c(Cl)c1)C(=O)O; dPhe(3-CF3) = N[C@H](Cc1cccc(C(F)(F)F)c1)C(=O)O; Phe(4-CONH2) = NC(=O)c1ccc(C[C@H](N)C(=O)O)cc1; Phe(4-COOH) = N[C@@H](Cc1ccc(C(=O)O)cc1)C(=O)O; Phe(3,4-F2) = N[C@@H](Cc1ccc(F)c(F)c1)C(=O)O; Bip = N[C@@H](Cc1ccc(-c2ccccc2)cc1)C(=O)O; Phe(3-Me) = Cc1cccc(C[C@H](N)C(=O)O)c1; d1Nal = N[C@H](Cc1cccc2ccccc12)C(=O)O; Bta = N[C@@H](Cc1csc2ccccc12)C(=O)O; dBta = N[C@H](Cc1csc2ccccc12)C(=O)O; Val(3-OH) = CC(C)(O)[C@H](N)C(=O)O; Cha = N[C@@H](CC1CCCCC1)C(=O)O; Cit = NC(=O)NCCC[C@H](N)C(=O)O; Ile(3ξ) = CCC(C)[C@H](N)C(=O)O; Thr(3ξ) = CC(O)[C@H](N)C(=O)O; Dap(Me) = CNC[C@H](N)C(=O)O; dNle = CCCC[C@@H](N)C(=O)O; Carboxymethyl = O=C(O)C*; NMeA = CN[C@@H](C)C(=O)O; Orn = NCCC[C@H](N)C(=O)O; Dab = NCC[C@H](N)C(=O)O

For this assay, the target named is T1, PE-labeled human PD-L1-Ig binding to Jurkat cell line over-expressing human PD-1 (Jurkat-PD-1) (Homo sapiens, UniProt Q15116).
T1 construct: expressed in transfected cells; host or cells: Jurkat
T1 sequence (Q15116 25-288): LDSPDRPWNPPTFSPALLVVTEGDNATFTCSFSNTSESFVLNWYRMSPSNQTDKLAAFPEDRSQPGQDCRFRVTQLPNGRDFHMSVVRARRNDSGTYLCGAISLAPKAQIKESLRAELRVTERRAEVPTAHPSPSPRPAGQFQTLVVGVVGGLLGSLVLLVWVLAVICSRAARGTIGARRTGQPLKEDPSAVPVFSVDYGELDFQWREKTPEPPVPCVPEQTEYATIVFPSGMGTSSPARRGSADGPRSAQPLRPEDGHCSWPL
Briefly: Jurkat-PD-1 Cell Binding High-Content Screening Assay (CBA): Method 1. The settings on record: Jurkat-hPD-1 cells, PE-labeled PD-L1-Ig 20 nM final; read-out: Jurkat HPDL1 PD1 IC50 (uM) (Method 1).
Usually IC50 stands for the concentration that gives 50% inhibition. As for `CC(C)C[C@@H]1NC(=O)[C@H](CCCNC(=N)N)NC(=O)[C@@H](Cc2cccc(C(F)(F)F)c2)NC(=O)[C@H](C)N(C)C(=O)[C@H](CCCNC(=N)N)NC(=O)[C@H](Cc2ccc(-c3ccccc3)cc2)NC(=O)[C@H](C(C)C)NC(=O)[C@H](Cc2c[nH]c3ccccc23)NC(=O)[C@H](CC(=O)O)NC(=O)[C@H](Cc2ccc(O)cc2)NC(=O)[C@H](Cc2ccccc2)NC(=O)CSC[C@@H](C(=O)N[C@@H](C)C(N)=O)NC(=O)[C@H]([C@@H](C)O)NC(=O)[C@H](C(C)C)NC1=O` [Compound 1075] ({CH2CO}-FYDWV[Bip]R[NMeA][dPhe(3-CF3)]RLVTCA-NH2; thioether N-14), the IC50 was determined as 0.55 µM.
Turning to `CC(C)C[C@@H]1NC(=O)[C@H](Cc2c[nH]c3ccccc23)NC(=O)[C@H](CC(=O)O)NC(=O)[C@H](Cc2ccc(O)cc2)NC(=O)[C@H](Cc2ccccc2)NC(=O)CSC[C@@H](C(=O)N[C@@H](C)C(N)=O)NC(=O)[C@H](C(C)O)NC(=O)[C@H](CCN)NC(=O)[C@H](CC(C)C)NC(=O)[C@H](CC(N)=O)NC(=O)[C@@H](C)NC(=O)[C@H](C)N(C)C(=O)[C@H](C(C)C)NC(=O)[C@H](Cc2ccc(-c3ccccc3)cc2)NC1=O` (some centres unmarked) [Compound 1534] ({CH2CO}-FYDWL[Bip]V[NMeA][dA]NL[Dab][Thr(3ξ)]CA-NH2; thioether N-14), the IC50 was found to be 0.49 µM.
Next, `Cc1cccc(C[C@@H]2NC(=O)[C@H](CC(=O)O)NC(=O)[C@H](Cc3ccc(C(=O)O)cc3)NC(=O)[C@H](Cc3ccc(OCC(=O)O)cc3)NC(=O)CSC[C@@H](C(=O)N[C@@H](C)C(N)=O)NC(=O)[C@H]([C@@H](C)O)NC(=O)[C@H](C(C)C)NC(=O)[C@H](CC(C)C)NC(=O)[C@H](CCN)NC(=O)[C@@H](CC(C)C)NC(=O)[C@H](C)N(C)C(=O)[C@H](CCCNC(N)=O)NC(=O)[C@H](Cc3ccc(-c4ccccc4)cc3)NC(=O)[C@H](C(C)C)NC2=O)c1` [Compound 1574] ({CH2CO}-Y(Carboxymethyl)[Phe(4-COOH)]D[Phe(3-Me)]V[Bip][Cit][NMeA][dL][Dab]LVTCA-NH2; thioether N-14): 0.02 µM; `CC(C)C[C@@H]1NC(=O)[C@H](CCCNC(=N)N)NC(=O)[C@@H](CC(C)C)NC(=O)[C@H](C)N(C)C(=O)[C@H](CCCNC(=N)N)NC(=O)[C@H](Cc2ccc(-c3ccccc3)cc2)NC(=O)[C@H](C(C)C)NC(=O)[C@H](Cc2ccc(F)c(F)c2)NC(=O)[C@H](CC(=O)O)NC(=O)[C@H](Cc2ccc(O)cc2)NC(=O)[C@H](CC(N)=O)NC(=O)CSC[C@@H](C(=O)N[C@@H](C)C(N)=O)NC(=O)[C@H]([C@@H](C)O)NC(=O)[C@H](C(C)C)NC1=O` [Compound 1194] ({CH2CO}-NYD[Phe(3,4-F2)]V[Bip]R[NMeA][dL]RLVTCA-NH2; thioether N-14): 0.69 µM.
Consider `CCCC[C@H]1NC(=O)[C@H](C)N(C)C(=O)[C@H](C(C)C)NC(=O)[C@H](Cc2ccc(-c3ccccc3)cc2)NC(=O)[C@H](CC(C)C)NC(=O)[C@H](Cc2c[nH]c3ccccc23)NC(=O)[C@H](CC(=O)O)NC(=O)[C@H](Cc2ccc(O)cc2)NC(=O)[C@H](Cc2ccccc2)NC(=O)CSC[C@@H](C(=O)N[C@@H](C)C(N)=O)NC(=O)[C@H](CO)NC(=O)[C@H](C(C)C)NC(=O)[C@H](CC(C)C)NC(=O)[C@H](CC(N)=O)NC1=O` [Compound 1753] ({CH2CO}-FYDWL[Bip]V[NMeA][dNle]NLVSCA-NH2; thioether N-14), for which the IC50 amounted to 0.03 µM.
As to `CNC[C@@H]1NC(=O)[C@@H](CC(C)C)NC(=O)[C@H](C)N(C)C(=O)[C@H](CCCNC(N)=O)NC(=O)[C@H](Cc2ccc(-c3ccccc3)cc2)NC(=O)[C@H](C(C)C)NC(=O)[C@H](Cc2c[nH]c3ccccc23)NC(=O)[C@H](CC(=O)O)NC(=O)[C@H](Cc2ccc(O)cc2)NC(=O)[C@H](CC(N)=O)NC(=O)CSC[C@@H](C(=O)N[C@@H](C)C(N)=O)NC(=O)[C@H](C(C)O)NC(=O)[C@H](C(C)C)NC(=O)[C@H](CC(C)C)NC1=O` (stereo partly drawn) [Compound 2039] ({CH2CO}-NYDWV[Bip][Cit][NMeA][dL][Dap(Me)]LV[Thr(3ξ)]CA-NH2; thioether N-14), the IC50 is 0.08 µM.
Turning to `CC(C)C[C@@H]1NC(=O)[C@H](CCCNC(=N)N)NC(=O)[C@@H](Cc2csc3ccccc23)NC(=O)[C@H](C)N(C)C(=O)[C@H](CCCNC(=N)N)NC(=O)[C@H](Cc2ccc(-c3ccccc3)cc2)NC(=O)[C@H](C(C)C)NC(=O)[C@H](Cc2c[nH]c3ccccc23)NC(=O)[C@H](CC(=O)O)NC(=O)[C@H](Cc2ccc(O)cc2)NC(=O)[C@H](CC(N)=O)NC(=O)CSC[C@@H](C(=O)N[C@@H](C)C(N)=O)NC(=O)[C@H]([C@@H](C)O)NC(=O)[C@H](C(C)C)NC1=O` [Compound 1181] ({CH2CO}-NYDWV[Bip]R[NMeA][dBta]RLVTCA-NH2; thioether N-14), the IC50 was found to be 0.34 µM.
For the compound `CC(C)C[C@@H]1NC(=O)[C@H](CCN)NC(=O)[C@@H](CC(C)C)NC(=O)[C@H](C)N(C)C(=O)[C@H](CCC(=O)O)NC(=O)[C@H](Cc2ccc(-c3ccccc3)cc2)NC(=O)[C@H](C(C)C)NC(=O)[C@H](Cc2c[nH]c3ccccc23)NC(=O)[C@H](CC(=O)O)NC(=O)[C@H](Cc2ccc(OCC(=O)O)cc2)NC(=O)[C@H](CC(N)=O)NC(=O)CSC[C@@H](C(=O)N[C@@H](C)C(N)=O)NC(=O)[C@H]([C@@H](C)O)NC(=O)[C@H](C(C)C)NC1=O` [Compound 1390] ({CH2CO}-NY(Carboxymethyl)DWV[Bip]E[NMeA][dL][Dab]LVTCA-NH2; thioether N-14), the IC50 is 0.11 µM.
Regarding `CC(C)C[C@@H]1NC(=O)[C@H](CCCN)NC(=O)[C@@H](Cc2cccc3ccccc23)NC(=O)[C@H](C)N(C)C(=O)[C@H](CCCNC(=N)N)NC(=O)[C@H](Cc2ccc(-c3ccccc3)cc2)NC(=O)[C@H](C(C)C)NC(=O)[C@H](Cc2c[nH]c3ccccc23)NC(=O)[C@H](CC(=O)O)NC(=O)[C@H](Cc2ccc(O)cc2)NC(=O)[C@H](CC(N)=O)NC(=O)CSC[C@@H](C(=O)N[C@@H](C)C(N)=O)NC(=O)[C@H]([C@@H](C)O)NC(=O)[C@H](C(C)C)NC1=O` [Compound 1182] ({CH2CO}-NYDWV[Bip]R[NMeA][d1Nal][Orn]LVTCA-NH2; thioether N-14), the IC50 stood at 0.3 µM.
With `CCC(C)[C@@H]1NC(=O)[C@H](Cc2ccc(-c3ccccc3)cc2)NC(=O)[C@H](C(C)C)NC(=O)[C@H](Cc2c[nH]c3ccccc23)NC(=O)[C@H](CC(=O)O)NC(=O)[C@H](Cc2ccc(O)cc2)NC(=O)[C@H](CC(N)=O)NC(=O)CSC[C@@H](C(=O)N[C@@H](C)C(N)=O)NC(=O)[C@H](C(C)O)NC(=O)[C@H](C(C)C)NC(=O)[C@H](CC(C)C)NC(=O)[C@H](CCN)NC(=O)[C@@H](CC(C)C)NC(=O)[C@H](C)N(C)C1=O` (stereo partly drawn) [Compound 2040] ({CH2CO}-NYDWV[Bip][Ile(3ξ)][NMeA][dL][Dab]LV[Thr(3ξ)]CA-NH2; thioether N-14), the IC50 was 0.05 µM.
Regarding `CC(C)C[C@@H]1NC(=O)[C@H](CCN)NC(=O)[C@@H](CC(C)C)NC(=O)[C@H](C)N(C)C(=O)[C@H](C(C)C)NC(=O)[C@H](Cc2ccc(-c3ccccc3)cc2)NC(=O)[C@H](C(C)C)NC(=O)[C@H](Cc2c[nH]c3ccccc23)NC(=O)[C@H](CC(=O)O)NC(=O)[C@H](Cc2ccc(OCC(=O)O)cc2)NC(=O)[C@H](Cc2ccc(OCC(=O)O)cc2)NC(=O)CSC[C@@H](C(=O)N[C@@H](C)C(N)=O)NC(=O)[C@H]([C@@H](C)O)NC(=O)[C@H](C(C)C)NC1=O` [Compound 1567] ({CH2CO}-Y(Carboxymethyl)Y(Carboxymethyl)DWV[Bip]V[NMeA][dL][Dab]LVTCA-NH2; thioether N-14), the IC50 turned out to be 0.02 µM.
With `Cc1cccc(C[C@@H]2NC(=O)[C@H](CC(=O)O)NC(=O)[C@H](Cc3ccc(OCC(=O)O)cc3)NC(=O)[C@H](CCN)NC(=O)CSC[C@@H](C(=O)N[C@@H](CO)C(N)=O)NC(=O)[C@H](CO)NC(=O)[C@H](C(C)(C)O)NC(=O)[C@H](CC3CCCCC3)NC(=O)[C@H](CCN)NC(=O)[C@@H](CC(C)C)NC(=O)[C@H](C)N(C)C(=O)[C@H](Cc3ccc(C(=O)O)cc3)NC(=O)[C@H](Cc3ccc(-c4ccccc4)cc3)NC(=O)[C@H](Cc3ccc(C(N)=O)cc3)NC2=O)c1` [Compound 2179] ({CH2CO}-[Dab]Y(Carboxymethyl)D[Phe(3-Me)][Phe(4-CONH2)][Bip][Phe(4-COOH)][NMeA][dL][Dab][Cha][Val(3-OH)]SCS-NH2; thioether N-14), the IC50 is 0.06 µM.
`CC(C)C[C@@H]1NC(=O)[C@H](CCCNC(=N)N)NC(=O)[C@@H](CC(C)C)NC(=O)[C@H](C)N(C)C(=O)[C@H](CCCNC(=N)N)NC(=O)[C@H](Cc2ccc(-c3ccccc3)cc2)NC(=O)[C@H](C(C)C)NC(=O)[C@H](Cc2ccc(Cl)c(Cl)c2)NC(=O)[C@H](CC(=O)O)NC(=O)[C@H](Cc2ccc(O)cc2)NC(=O)[C@H](CC(N)=O)NC(=O)CSC[C@@H](C(=O)N[C@@H](C)C(N)=O)NC(=O)[C@H]([C@@H](C)O)NC(=O)[C@H](C(C)C)NC1=O` [Compound 1195] ({CH2CO}-NYD[Phe(3,4-Cl2)]V[Bip]R[NMeA][dL]RLVTCA-NH2; thioether N-14): the IC50 was 0.32 µM.
In the case of `CC(C)C[C@@H]1NC(=O)[C@H](CCCNC(=N)N)NC(=O)[C@H](Cc2csc3ccccc23)NC(=O)[C@H](C)N(C)C(=O)[C@H](CCCNC(=N)N)NC(=O)[C@H](Cc2ccc(-c3ccccc3)cc2)NC(=O)[C@H](C(C)C)NC(=O)[C@H](Cc2c[nH]c3ccccc23)NC(=O)[C@H](CC(=O)O)NC(=O)[C@H](Cc2ccc(O)cc2)NC(=O)[C@H](CCC(N)=O)NC(=O)CSC[C@@H](C(=O)NCC(N)=O)NC(=O)[C@H](CO)NC(=O)[C@H](C(C)C)NC1=O` [Compound 1028] ({CH2CO}-QYDWV[Bip]R[NMeA][Bta]RLVSCG-NH2; thioether N-14), the IC50 is 0.11 µM.

The values are drawn from patent US20240409585A1, “MACROCYCLIC IMMUNOMODULATORS” (priority 2021, published 2024).
